Experimental findings from patent publication US20250242170A1, “Methods and Systems for Improving Photodynamic Therapy by Increasing Depth of Penetration Without Concurrently Increasing Energy Deposition” (priority 2024, published 2025) are described below.

The test system of data set [1] is Glioblastoma multiforme. The data set can be described thus: Use case: PDT and SONG laser in treatment of glioblastoma multiforme. The data set is classed as in vivo, human. An excerpt: The process is further described within a use case scenario of treating a person diagnosed with glioblastoma multiforme. Glioblastoma multiforme is the most aggressive of the brain cancers characterized by rapid growth and extensions throughout the brain making it surgically incurable. Prognosis without treatment is usually 3 months and with maximum treatment only 18 months. The conventional treatment protocol is neurosurgical debulking, targeted and whole brain radiation, followed by 6 months of chemotherapy with Temodar. After these treatments have been exhausted and disease recurs the prognosis is very poor and short term.
The patient described in the stated use case received debulking neurosurgery, targeted radiation to the areas of visible mass, followed by whole brain radiation, and then 6 months of Temodar. After these treatments they suffered memory loss and emotional instability.
A month after completing their last cycle of chemotherapy, the patient received the SONG Laser-based photodynamic therapy in accordance with the present specification, using ICG as the photo-active compound. On days 1, 2, and 3 of the treatment, the patient received 50 mg of nanoscaled or liposomal ICG. On day 3 they were treated with a SONG laser device at 810 nm near infra-red with a primary beam power of 5 Watts. From the peak power measured after going through the beam expander and SONG generator of 3.5 Watts this was reduced 60% to a measured output power of 1.4 Watts. The treated laser was applied in a beam expanded to 25 mm to the whole brain transcutaneously for 12 minutes total duration, by slowly scanning the 25 mm beam systematically over the skull under which brain substance is located. […]
In the mentioned use case, an additional adjunct to the patient's PDT treatment included administering SONG Laser activated and guided very small embryonic-like (VSEL) stem cells 3 days before the PDT cycle began. […] This procedure with SONG Laser activated and guided VSELs was repeated 1 day before the PDT procedure, except with 2.7 times the quantity of VSELs.

For data set [2], the system named is prostate neoplasia. The data set can be described thus: Use case: PDT and SONG laser in treatment of prostate neoplasia. The note with it: a few weeks after treatment.
The mark [3] stands for this setting: same methylene blue + SONG laser protocol.

In the case of `CC1(C)C(/C=C/C=C/C=C/C=C2\N(CCCCS(=O)(=O)O)c3ccc4ccccc4c3C2(C)C)=[N+](CCCCS(=O)(=O)[O-])c2ccc3ccccc3c21` [ICG, Indocyanine Green], the “MRI scan repeated, recurrence” value in data set [1] (4 months after completing last chemotherapy, same ICG + SONG laser 810 nm protocol) is on record as “no evidence of recurrence”. Also, the “MRI scan, recurrence of Glioblastoma multiforme” value in data set [1] (a month after PDT, 50 mg nanoscaled or liposomal ICG on days 1, 2, 3, SONG laser 810 nm, 1.4 W output, whole brain, 12 min on two days, adjunct laser-activated VSELs) is on record as “no evidence of recurrence”. For the same compound, in data set [1] (over the next 2 months after the first MRI, same ICG + SONG laser protocol), the memory and mood entry was “improvements in their memory and mood”.
For `CN(C)c1ccc2nc3ccc(=[N+](C)C)cc-3sc2c1` [methylene blue, Methylene Blue], the “reduction of PSA” value in data set [2] (50 mg orally and also intra-rectally, 1 h wait, SONG laser 660 nm, 80 mW output, through the perineum, 10 min, PSA of 16 before) amounted to 50%. Moreover, in data set [2] (PSA of 16 before, same methylene blue + SONG laser protocol), the “PSA level after treatment” value is 8. Further, in data set [2] (setting [3]), the adverse effects entry is given as “no adverse effects” and the urinary symptoms result is recorded as “improvements in urinary symptoms”.
